# Measured values: US20200131156A1, “ARYLSULFONYLPYROLECARBOXAMIDE DERIVATIVES AS Kv3 POTASSIUM CHANNEL ACTIVATORS” (H. Lundbeck A/S, priority 2018, published 2020)
# Where two headings read alike, the source gives them in different places.
# What was measured:
# [1] = In vivo pharmacokinetic time profile in rats (plasma and brain); settings: rat; for Cmax / half-life / Kp: male, Sprague Dawley; for Cmax / half-life: plasma; for Cmax: vehicle 10% HP-betaCD; for half-life: read-out: T½ (converted); for Kp: brain, read-out: measured brain/plasma ratio
# Experimental: Male Sprague Dawley rats or male C57 mice from SLAC Laboratory Animal Co. Ltd., Shanghai, China or SIPPR/BK Laboratory Animal Co. Ltd., Shanghai, China were used for pharmacokinetic studies. Animals were group housed during acclimation and individually housed during in-life. The animal room environment was controlled (conditions: temperature 20 to 26° C., relative humidity 30 to 70%, 12 hours artificial light and 12 hours dark) and all animals have access to Certified Rodent Diet (Beijing KEAO XIELI Feed Co., Ltd. Beijing, P.R. China.) ad libitum. Animals were deprived of food overnight prior to dosing and fed approximately 4 hours post-dosing. Water was autoclaved before provided to the animals ad libitum.
# For oral dosing, the dose formulation was administered via oral gavage.
# Animals were anesthetized via isoflurane. At terminal time point, about 200 μL blood was collected from cardiac puncture or abdominal vein. All blood samples were transferred into microcentrifuge tubes containing 5 μL of K2EDTA (0.5 M) as anti-coagulant and placed on wet ice until processed for plasma by centrifugation (3,000 rpm for 5 minutes at 2 to 8° C.) within half an hour of collection and kept at −70±10° C. until LC/MSMS analysis
# After blood collection, brain was harvested and washed twice with cold deionized water, and blotted on filter paper, weighted and frozen until processed. Brain samples were thawed and homogenized with 4-fold of cold water using Covaris (peak power 450.0, Duty Factor 20.0, Cycles/Burst 200). for 3 min, vortex for 10 second every 1 min. Samples were further stored at −79° C. (dilution factor=5) until bioanalysis
# human Kv3.2 = molecular target: T1, human Kv3.2 (Homo sapiens, UniProt Q96PR1); test: Manual patch clamp electrophysiology, HEK-293 cells stably expressing human Kv3.2; type: cell-based; settings: for hKv3.2 ECΔ30% increase: concentration increasing current by 30% at the −10 mV step; for hKv3.2 ECΔ5 mV: concentration that shifts activation threshold by 5 mV
# T1 construct: expressed in transfected cells
# T1 sequence (Q96PR1 1-638): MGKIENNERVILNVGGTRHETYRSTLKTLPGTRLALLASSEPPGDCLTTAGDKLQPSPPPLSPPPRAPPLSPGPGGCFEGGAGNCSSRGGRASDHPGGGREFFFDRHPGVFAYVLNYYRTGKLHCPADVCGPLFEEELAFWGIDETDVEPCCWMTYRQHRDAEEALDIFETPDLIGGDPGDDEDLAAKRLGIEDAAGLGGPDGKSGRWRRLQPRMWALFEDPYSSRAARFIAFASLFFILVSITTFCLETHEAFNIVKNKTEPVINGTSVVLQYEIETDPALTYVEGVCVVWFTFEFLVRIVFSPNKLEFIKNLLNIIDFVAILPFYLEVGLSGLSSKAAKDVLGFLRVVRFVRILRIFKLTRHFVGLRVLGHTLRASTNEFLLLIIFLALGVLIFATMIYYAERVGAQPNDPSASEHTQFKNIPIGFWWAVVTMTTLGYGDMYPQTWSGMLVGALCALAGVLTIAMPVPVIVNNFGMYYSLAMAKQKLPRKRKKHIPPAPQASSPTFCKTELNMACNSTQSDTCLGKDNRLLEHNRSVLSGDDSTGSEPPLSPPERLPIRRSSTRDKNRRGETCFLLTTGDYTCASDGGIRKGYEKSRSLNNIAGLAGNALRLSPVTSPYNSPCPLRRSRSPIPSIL
# Experimental: Manual Patch Clamp Electrophysiological Evaluation, hKv3.1, hKv3.2, hKv3.3, hKv3.4:
# HEK-293 cells stably expressing human Kv3.1b, Kv3.2, Kv3.3 or Kv3.4 were used for the experiments.
# Kv3.1b, Kv3.2: Cells were cultured in MEM medium supplemented with 10% Fetal Bovine Serum, 1% Penicillin/Streptomycin, 2 mM glutamine and 0.6 mg/mL geneticin. Cells were grown to 80-90% confluency at 37° C. and 5% CO2 Kv3.3 or Kv3.4: Cells were cultured in DMEM medium supplemented with 10% Fetal Bovine Serum, 500 ug/mL Geneticidin and 1% Penicillin/Streptomycin. Cells were grown to 80-90% confluency at 37° C. and 5% CO2.
# On the day of the experiment the cells were detached by TrypLE and resuspended in culture medium. Cells were centrifuged, media removed and the cells were resuspended in extracellular buffer containing (in mM): 130 Na-gluconate, 20 NaCl, 4 KCl, 1 MgCl2, 1.8 CaCl2, 10 HEPES and 5 glucose, pH 7.3 adjusted with NaOH, 310-320 mOsm
# Patch-clamp recordings were performed using a manual patch-clamp system (Axon Multiclamp 700B, Digidata 1440, pCLAMP 10, Molecular Devices Corporation) with a fast perfusion system (RSC-160 Rapid solution Changer, BioLogic). Whole-cell recordings were carried out using an intracellular solution containing (in mM): 100 K-gluconate, 40 KCl, 10 HEPES, 1 EGTA, 1 MgCl2, pH 7.2 adjusted with KOH, 290-300 mOsm. Cell membrane potentials were held at −80 mV and current voltage-relationship was generated by voltage steps (50 ms duration) from −100 mV to +10 mV (in 10 mV increments) and then back to −100 mV for 50 ms, with inter-sweep interval of 3 s. The peak current amplitude of −10 mV was monitored until stable (<5% change) by using one step voltage protocol. One IV protocol was run as baseline, then compound perfusion was stared and peak current stability was monitored with single step protocol prior to the IV protocol. Single concentrations were measured per cell. Acceptable cells had seal resistance >500 MOhm, Access resistance <10 MOhm, and leak current <200 pA.
# Data analysis was performed using Clampfit (V10.2) in combination with Microsoft Excel™ (Redmond, Wash., USA). Current voltage relationships were plotted from the peak current (baseline subtracted) at the individual voltage steps normalized to the vehicle addition at 10 mV. The voltage threshold for channel activation was defined as 5% activation of the peak current at 10 mV in presence of vehicle. […] The concentration needed to shift the threshold 5 mV was readout from this curve (ECΔ5 mV), as well as the ability to increase the peak current at the −10 mV step (EC30% increase). […]
# [2] = 3 mg/mg, SC administration, dose 3 (mg/mg [sic])
# [3] = 30 mg/mg, SC administration, dose 30 (mg/mg [sic])
# [4] = PO administration, dose 3 (mg/mg)
# [5] = PO administration, dose 30 (mg/mg)
# [6] = SC administration, dose 3 (mg/mg)
# [7] = SC administration, dose 10 (mg/mg)
smiles,measurement,setting,value
"Cc1ccc(S(=O)(=O)n2ccc(C(=O)NCc3ncco3)c2)cc1 [Compound 86, 1-(4-methylbenzene-1-sulfonyl)-N-[(1,3-oxazol-2-yl)methyl]-1H-pyrrole-3-carboxamide]",Cmax,[1]; [2],1100 ng/mL
same,half-life,[1]; [2],18 min
same,Cmax,[1]; [3],7620 ng/mL
same,half-life,[1]; [3],24 min
same,Kp,[1]; subcutaneous,0.25
same,Estimated unbound brain Cmax,"[1]; SC, dose 3 (mg/mg [sic]), based on brain/plasma ratio 0.25 and unbound fraction in brain 12%",95 nM
same,"Unbound plasma, Cmax","[1]; SC, dose 3 (mg/mg [sic]), unbound fraction in plasma 12%",380 nM
same,Estimated unbound brain Cmax,"[1]; SC, dose 30 (mg/mg [sic]), based on brain/plasma ratio 0.25 and unbound fraction in brain 12%",663 nM
same,"Unbound plasma, Cmax","[1]; SC, dose 30 (mg/mg [sic]), unbound fraction in plasma 12%",2650 nM
same,hKv3.2 ECΔ30% increase,human Kv3.2,>30 µM
same,hKv3.2 ECΔ5 mV,human Kv3.2,6.0 µM
"Cc1cnc(CNC(=O)c2ccn(S(=O)(=O)c3ccc(F)cc3C)c2)cn1 [Compound 90, 1-(4-fluoro-2-methylbenzene-1-sulfonyl)-N-[(5-methylpyrazin-2-yl)methyl]-1H-pyrrole-3-carboxamide]",Cmax,[1]; [4],627 ng/mL
same,half-life,[1]; [4],120 min
same,Cmax,[1]; [5],3940 ng/mL
same,half-life,[1]; [5],66 min
same,Cmax,[1]; [6],427 ng/mL
same,half-life,[1]; [6],48 min
same,Cmax,[1]; [7],1370 ng/mL
same,half-life,[1]; [7],42 min
same,Kp,[1],0.5
same,Estimated unbound brain Cmax,"[1]; PO, dose 3 (mg/mg), based on brain/plasma ratio 0.5 and unbound fraction in brain 8%",65 nM
same,"Unbound plasma, Cmax","[1]; PO, dose 3 (mg/mg), unbound fraction in plasma 10%",160 nM
same,Estimated unbound brain Cmax,"[1]; PO, dose 30 (mg/mg), based on brain/plasma ratio 0.5 and unbound fraction in brain 8%",406 nM
same,"Unbound plasma, Cmax","[1]; PO, dose 30 (mg/mg), unbound fraction in plasma 10%",1015 nM
same,Estimated unbound brain Cmax,"[1]; SC, dose 3 (mg/mg), based on brain/plasma ratio 0.5 and unbound fraction in brain 8%",44 nM
same,"Unbound plasma, Cmax","[1]; SC, dose 3 (mg/mg), unbound fraction in plasma 10%",110 nM
same,Estimated unbound brain Cmax,"[1]; SC, dose 10 (mg/mg), based on brain/plasma ratio 0.5 and unbound fraction in brain 8%",142 nM
same,"Unbound plasma, Cmax","[1]; SC, dose 10 (mg/mg), unbound fraction in plasma 10%",353 nM
same,hKv3.2 ECΔ30% increase,human Kv3.2,8.2 µM
same,hKv3.2 ECΔ5 mV,human Kv3.2,1.5 µM
